# What was measured:
# [1] = target: Ribosomal protein S6 kinase alpha-1 (Homo sapiens, UniProt Q15418)
# SN12C = assay: Growth inhibition of human SN12C cells after 48 hrs by SRB assay; type: functional
# RXF 393 = assay: Growth inhibition of human RXF393 cells after 48 hrs by SRB assay; type: functional; conditions: RXF 393, 48 h
# SNB-19 = assay: Growth inhibition of human SNB19 cells after 48 hrs by SRB assay; type: functional; conditions: SNB-19, 48 h
# SK-MEL-5 = assay: Growth inhibition of human SK-MEL-5 cells after 48 hrs by SRB assay; type: functional; conditions: SK-MEL-5, 48 h
# SNB-75 = assay: Growth inhibition of human SNB75 cells after 48 hrs by SRB assay; type: functional; conditions: SNB-75, 48 h
# HCC 2998 = assay: Growth inhibition of human HCC2998 cells after 48 hrs by SRB assay; type: functional; conditions: HCC 2998, 48 h
# MCF7 = assay: Growth inhibition of human MCF7 cells after 48 hrs by SRB assay; type: functional; conditions: MCF7, 48 h
# CAKI-1 = assay: Growth inhibition of human Caki1 cells after 48 hrs by SRB assay; type: functional; conditions: CAKI-1, 48 h
# LOX IMVI = assay: Growth inhibition of human LOXIMVI cells after 48 hrs by SRB assay; type: functional
# TK-10 = assay: Growth inhibition of human TK10 cells after 48 hrs by SRB assay; type: functional; conditions: TK-10, 48 h
# T47D = assay: Growth inhibition of human T47D cells after 48 hrs by SRB assay; type: functional
# SW-620 = assay: Growth inhibition of human SW620 cells after 48 hrs by SRB assay; type: functional; conditions: SW-620, 48 h
# NCI-H322M = assay: Growth inhibition of human NCI-H322M cells after 48 hrs by SRB assay; type: functional
# PC-3 = assay: Growth inhibition of human PC3 cells after 48 hrs by SRB assay; type: functional; conditions: PC-3, 48 h
# M14 = assay: Growth inhibition of human M14 cells after 48 hrs by SRB assay; type: functional; conditions: M14, 48 h
# UO-31 = assay: Growth inhibition of human UO31 cells after 48 hrs by SRB assay; type: functional; conditions: UO-31, 48 h
# NCI/ADR-RES = assay: Growth inhibition of human NCI/ADR-RES cells after 48 hrs by SRB assay; type: functional
# UACC-62 = assay: Growth inhibition of human UACC62 cells after 48 hrs by SRB assay; type: functional; conditions: UACC-62, 48 h
# A549 = assay: Growth inhibition of human A549 cells after 48 hrs by SRB assay; type: functional; conditions: A549, 48 h
# [2] = target: Serine/threonine-protein kinase Chk2 (Homo sapiens, UniProt O96017)
# Chain of Serine/threonine-protein kinase Chk2 (O96017 whole entry): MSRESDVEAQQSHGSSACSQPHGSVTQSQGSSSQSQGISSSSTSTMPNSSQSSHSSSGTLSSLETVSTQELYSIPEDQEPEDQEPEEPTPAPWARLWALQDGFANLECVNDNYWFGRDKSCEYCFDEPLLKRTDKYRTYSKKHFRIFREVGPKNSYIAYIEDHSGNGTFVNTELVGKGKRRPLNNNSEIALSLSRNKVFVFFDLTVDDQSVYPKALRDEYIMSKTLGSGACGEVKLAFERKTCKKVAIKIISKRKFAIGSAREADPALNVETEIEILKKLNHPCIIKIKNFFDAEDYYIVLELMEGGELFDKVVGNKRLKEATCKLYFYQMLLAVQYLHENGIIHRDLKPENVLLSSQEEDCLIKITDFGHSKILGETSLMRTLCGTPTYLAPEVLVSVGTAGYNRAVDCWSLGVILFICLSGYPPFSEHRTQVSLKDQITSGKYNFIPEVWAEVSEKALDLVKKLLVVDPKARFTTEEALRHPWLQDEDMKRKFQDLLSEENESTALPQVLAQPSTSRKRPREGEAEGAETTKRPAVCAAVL
# NCI-H460 = assay: Growth inhibition of human NCI-H460 cells after 48 hrs by SRB assay; type: functional; conditions: NCI-H460, 48 h
# SF-539 = assay: Growth inhibition of human SF539 cells after 48 hrs by SRB assay; type: functional; conditions: SF-539, 48 h
# HT-29 = assay: Growth inhibition of human HT-29 cells after 48 hrs by SRB assay; type: functional; conditions: HT-29, 48 h
# SF-268 = assay: Growth inhibition of human SF268 cells after 48 hrs by SRB assay; type: functional; conditions: SF-268, 48 h
# K562 = assay: Growth inhibition of human K562 cells after 48 hrs by SRB assay; type: functional; conditions: K562, 48 h
# NCI-H23 = assay: Growth inhibition of human NCI-H23 cells after 48 hrs by SRB assay; type: functional; conditions: NCI-H23, 48 h
# [3] = target: T1, Serine/threonine-protein kinase Chk1 (Homo sapiens, UniProt O14757)
# T1 sequence (O14757 whole entry): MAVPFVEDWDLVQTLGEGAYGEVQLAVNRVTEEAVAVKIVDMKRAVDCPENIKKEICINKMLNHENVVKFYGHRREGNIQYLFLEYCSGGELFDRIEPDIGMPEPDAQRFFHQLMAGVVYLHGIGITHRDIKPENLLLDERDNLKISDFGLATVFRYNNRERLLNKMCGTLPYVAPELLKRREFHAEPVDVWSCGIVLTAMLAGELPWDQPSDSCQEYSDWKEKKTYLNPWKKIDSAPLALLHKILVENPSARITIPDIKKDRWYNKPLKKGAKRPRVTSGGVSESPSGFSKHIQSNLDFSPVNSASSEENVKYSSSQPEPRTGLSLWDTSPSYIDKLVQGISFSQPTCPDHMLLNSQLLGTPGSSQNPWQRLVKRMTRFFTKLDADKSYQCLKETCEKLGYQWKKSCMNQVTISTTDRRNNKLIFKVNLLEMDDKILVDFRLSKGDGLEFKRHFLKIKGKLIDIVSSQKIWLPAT
# OVCAR-3 = assay: Growth inhibition of human OVCAR3 cells after 48 hrs by SRB assay; type: functional; conditions: OVCAR-3, 48 h
# SF-295 = assay: Growth inhibition of human SF295 cells after 48 hrs by SRB assay; type: functional; conditions: SF-295, 48 h
# ACHN = assay: Growth inhibition of human ACHN cells after 48 hrs by SRB assay; type: functional
# [4] = read-out: pLC50 (the source's name) (converted)
# Chain of Ribosomal protein S6 kinase alpha-1 (Q15418 whole entry): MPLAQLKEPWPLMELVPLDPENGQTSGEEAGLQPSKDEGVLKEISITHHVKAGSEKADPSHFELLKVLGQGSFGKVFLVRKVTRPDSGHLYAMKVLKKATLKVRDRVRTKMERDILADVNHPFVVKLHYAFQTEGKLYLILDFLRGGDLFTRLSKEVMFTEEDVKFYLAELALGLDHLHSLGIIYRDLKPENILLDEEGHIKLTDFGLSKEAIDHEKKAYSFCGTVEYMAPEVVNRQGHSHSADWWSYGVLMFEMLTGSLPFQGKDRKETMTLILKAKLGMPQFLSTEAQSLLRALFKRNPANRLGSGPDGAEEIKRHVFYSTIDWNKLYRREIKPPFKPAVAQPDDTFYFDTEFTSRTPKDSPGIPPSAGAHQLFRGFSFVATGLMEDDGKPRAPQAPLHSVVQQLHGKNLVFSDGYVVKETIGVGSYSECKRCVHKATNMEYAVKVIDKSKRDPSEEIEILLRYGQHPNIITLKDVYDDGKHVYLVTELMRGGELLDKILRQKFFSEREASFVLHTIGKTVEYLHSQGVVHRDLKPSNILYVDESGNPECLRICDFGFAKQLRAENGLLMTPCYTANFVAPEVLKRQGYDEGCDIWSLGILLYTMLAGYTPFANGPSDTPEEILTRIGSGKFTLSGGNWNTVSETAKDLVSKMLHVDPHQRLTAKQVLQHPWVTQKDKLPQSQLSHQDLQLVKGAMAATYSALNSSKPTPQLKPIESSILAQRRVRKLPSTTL
structure (smiles),measurement,setting,value
N=C(N)N/N=C\c1c(-c2ccc([N+](=O)[O-])cc2)nc2sc(Br)cn12,IC50,[1],1180 nM
same,GI50,SN12C,617 nM
same,CC50,SN12C; [4],5890 nM
same,TGI,SN12C; read-out: pTGI (converted),2820 nM
same,GI50,RXF 393,186 nM
same,CC50,RXF 393; [4],759 nM
same,TGI,RXF 393; read-out: pTGI (converted),372 nM
same,GI50,SNB-19,380 nM
same,CC50,SNB-19; [4],5010 nM
same,TGI,SNB-19; read-out: pTGI (converted),4790 nM
same,GI50,SK-MEL-5,490 nM
same,CC50,SK-MEL-5; [4],5370 nM
same,TGI,SK-MEL-5; read-out: pTGI (converted),1950 nM
same,GI50,SNB-75,204 nM
same,CC50,SNB-75; [4],1290 nM
same,TGI,SNB-75; read-out: pTGI (converted),4680 nM
same,GI50,HCC 2998,234 nM
same,CC50,HCC 2998; [4],2340 nM
same,TGI,HCC 2998; read-out: pTGI (converted),646 nM
same,GI50,MCF7,162 nM
same,TGI,MCF7; read-out: pTGI (converted),324 nM
same,GI50,CAKI-1,234 nM
same,CC50,CAKI-1; [4],4790 nM
same,TGI,CAKI-1; read-out: pTGI (converted),1070 nM
same,GI50,LOX IMVI,191 nM
same,TGI,LOX IMVI; read-out: pTGI (converted),417 nM
same,GI50,TK-10,269 nM
same,CC50,TK-10; [4],4470 nM
same,TGI,TK-10; read-out: pTGI (converted),1100 nM
same,GI50,T47D,170 nM
same,TGI,T47D; read-out: pTGI (converted),3630 nM
same,GI50,SW-620,182 nM
same,CC50,SW-620; [4],891 nM
same,TGI,SW-620; read-out: pTGI (converted),407 nM
same,GI50,NCI-H322M,309 nM
same,CC50,NCI-H322M; [4],3980 nM
same,TGI,NCI-H322M; read-out: pTGI (converted),4170 nM
same,GI50,PC-3,186 nM
same,CC50,PC-3; [4],759 nM
same,TGI,PC-3; read-out: pTGI (converted),380 nM
same,GI50,M14,229 nM
same,CC50,M14; [4],1660 nM
same,TGI,M14; read-out: pTGI (converted),537 nM
same,GI50,UO-31,174 nM
same,CC50,UO-31; [4],676 nM
same,TGI,UO-31; read-out: pTGI (converted),355 nM
same,GI50,NCI/ADR-RES,219 nM
same,CC50,NCI/ADR-RES; [4],3550 nM
same,TGI,NCI/ADR-RES; read-out: pTGI (converted),891 nM
same,GI50,UACC-62,347 nM
same,CC50,UACC-62; [4],4570 nM
same,TGI,UACC-62; read-out: pTGI (converted),4470 nM
same,GI50,A549,182 nM
same,CC50,A549; [4],6610 nM
same,TGI,A549; read-out: pTGI (converted),347 nM
same,IC50,[2],1960 nM
same,GI50,NCI-H460,229 nM
same,CC50,NCI-H460; [4],1820 nM
same,TGI,NCI-H460; read-out: pTGI (converted),501 nM
same,GI50,SF-539,372 nM
same,CC50,SF-539; [4],3720 nM
same,TGI,SF-539; read-out: pTGI (converted),1260 nM
same,GI50,HT-29,178 nM
same,CC50,HT-29; [4],646 nM
same,TGI,HT-29; read-out: pTGI (converted),339 nM
same,GI50,SF-268,219 nM
same,TGI,SF-268; read-out: pTGI (converted),447 nM
same,GI50,K562,40.7 nM
same,GI50,NCI-H23,389 nM
same,CC50,NCI-H23; [4],3980 nM
same,TGI,NCI-H23; read-out: pTGI (converted),4470 nM
same,IC50,[3],13800 nM
same,GI50,OVCAR-3,204 nM
same,CC50,OVCAR-3; [4],724 nM
same,TGI,OVCAR-3; read-out: pTGI (converted),380 nM
same,GI50,SF-295,575 nM
same,CC50,SF-295; [4],6310 nM
same,TGI,SF-295; read-out: pTGI (converted),4470 nM
same,GI50,ACHN,295 nM
same,CC50,ACHN; [4],5370 nM
same,TGI,ACHN; read-out: pTGI (converted),871 nM

# From ChEMBL document CHEMBL1909514, “Imidazo[2,1-b]thiazole guanylhydrazones as RSK2 inhibitors” (Eur J Med Chem, 2011)
